Test results reported in PubChem BioAssay AID206 (DTP/NCI, 2004).
Several values for one entry are separate records, joined by “and”; a condition that tells them apart may be missing. Equal entries are not always repeated. Results filed as inconclusive are left out.

Test system: nude mice, HT29 intrarenal xenograft, tumor weight T/C
Assay: NCI In Vivo Anticancer Drug Screen. Data for tumor model HT29;CX-1 Human Adenocarcinoma (MER+) (intrarenal inoculation) in NU/NU Swiss (nude) mice
Conditions: endpoint: mean tumor weight change, higher = larger tumour
Procedure, shortened: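 Mice with transplanted tumors are dosed with compound while controls get vehicle only. Survival or tumor burden is then assessed per group, and the treated value is expressed relative to control.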

[1] = dose: 300.0 mg/kg/injection, schedule: Q04DX004 (sc), vehicle: saline with Tween-80
[2] = dose: 600.0 mg/kg/injection, schedule: Q04DX004 (sc), vehicle: saline with Tween-80
[3] = dose: 50.0 mg/kg/injection, schedule: Q04DX004 (sc), vehicle: saline with Tween-80
[4] = dose: 100.0 mg/kg/injection, schedule: Q04DX004 (sc), vehicle: saline with Tween-80
[5] = dose: 200.0 mg/kg/injection, schedule: Q04DX004 (sc), vehicle: saline with Tween-80

With `CN(C)C1C(=O)C(C(=O)NP(=O)(NCCCO)N(CCCl)CCCl)=C(O)C2(O)C(=O)C3=C(O)c4c(O)cccc4C(C)(O)C3CC12` (configuration not stated) the T/C (dose: 75.0 mg/kg/injection, schedule: Q04DX004 (sc), vehicle: saline with Tween-80) was 89 % of control, the T/C [1] was 7 % of control and 32 % of control and the T/C [2] was -99 % of control.

For `BrC[P+](CBr)(CBr)CBr`, the T/C [3] was 86 % of control, the T/C [4] was 57 % of control and the T/C [5] was 82 % of control. The T/C (dose: 400.0 mg/kg/injection, schedule: Q04DX004 (sc), vehicle: saline with Tween-80) was 103 % of control.

`NC1(C(=O)O)CCCC1` was tested, and the T/C (dose: 12.5 mg/kg/injection, schedule: Q01DX010 (sc), vehicle: saline) was 49 % of control and the T/C (dose: 200.0 mg/kg/injection, schedule: Q01DX010 (sc), vehicle: saline) was -20 % of control.

With `O=C1NCC(Br)C(=O)N1` (configuration not stated) the T/C (dose: 150.0 mg/kg/injection, schedule: Q04DX004 (sc), vehicle: saline with Tween-80) was 68 % of control, the T/C [1] was 50 % of control and the T/C [2] was 60 % of control.

With `CCCCCCCCNc1cc2c3c(c1)CCCN3CCC2` the T/C (dose: 3.0 mg/kg/injection, schedule: Q04DX004 (sc), vehicle: Klucel (hydroxypropylcellulose) (HPC)) was 69 % of control, the T/C (dose: 6.0 mg/kg/injection, schedule: Q04DX004 (sc), vehicle: Klucel (hydroxypropylcellulose) (HPC)) was 103 % of control and the T/C (dose: 12.0 mg/kg/injection, schedule: Q04DX004 (sc), vehicle: Klucel (hydroxypropylcellulose) (HPC)) was 73 % of control.

In the case of `O=C[C@@H](CO)O[C@H](C=O)n1cnc2c(=O)[nH]cnc21`, the T/C (dose: 225.0 mg/kg/injection, schedule: Q04DX004 (sc), vehicle: saline) is reported as 76 % of control, the T/C (dose: 450.0 mg/kg/injection, schedule: Q04DX004 (sc), vehicle: saline) is reported as 86 % of control and the T/C (dose: 900.0 mg/kg/injection, schedule: Q04DX004 (sc), vehicle: saline) is reported as 93 % of control.

`O=C(CC(=O)C(F)(F)F)c1csc2ccccc12` was tested, and the T/C (dose: 150.0 mg/kg/injection, schedule: Q04DX004 (sc), vehicle: Klucel (hydroxypropylcellulose) (HPC)) was 116 % of control, the T/C (dose: 300.0 mg/kg/injection, schedule: Q04DX004 (sc), vehicle: Klucel (hydroxypropylcellulose) (HPC)) was 73 % of control and the T/C (dose: 600.0 mg/kg/injection, schedule: Q04DX004 (sc), vehicle: Klucel (hydroxypropylcellulose) (HPC)) was 87 % of control.

For `OCC1OC(n2cnc3cncnc32)C(O)C1O` (configuration not stated), the T/C (dose: 12.5 mg/kg/injection, schedule: Q04DX004 (sc), vehicle: saline) was 65 % of control, the T/C (dose: 25.0 mg/kg/injection, schedule: Q04DX004 (sc), vehicle: saline) was 77 % of control and the T/C (dose: 50.0 mg/kg/injection, schedule: Q04DX004 (sc), vehicle: saline) was 66 % of control.

In the case of `CC1(C)COCN1COC1CCCCC1`, the T/C (dose: 100.0 mg/kg/injection, schedule: Q04DX004 (sc), vehicle: saline) is reported as 34 % of control.

In the case of `O=C1C(NCCO)=C(N2CC2)C(=O)C(NCCO)=C1N1CC1`, the T/C (dose: 0.5 mg/kg/injection, schedule: Q04DX004 (sc), vehicle: saline) is reported as 76 % of control, the T/C (dose: 1.0 mg/kg/injection, schedule: Q04DX004 (sc), vehicle: saline) is reported as 12 % of control and the T/C (dose: 1.5 mg/kg/injection, schedule: Q04DX004 (sc), vehicle: saline) is reported as 86 % of control. For the same compound, the T/C (dose: 2.0 mg/kg/injection, schedule: Q04DX004 (sc), vehicle: saline) was 21 % of control and the T/C (dose: 3.0 mg/kg/injection, schedule: Q04DX004 (sc), vehicle: saline) was 82 % of control.

`Cc1ccc(NCCN(C)C)c2c(=O)c3cc(O)ccc3sc12` was tested, and the T/C (dose: 225.0 mg/kg/injection, schedule: Q04DX004 (sc), vehicle: Klucel (hydroxypropylcellulose) (HPC)) was 81 % of control, the T/C (dose: 450.0 mg/kg/injection, schedule: Q04DX004 (sc), vehicle: Klucel (hydroxypropylcellulose) (HPC)) was 64 % of control and the T/C (dose: 900.0 mg/kg/injection, schedule: Q04DX004 (sc), vehicle: Klucel (hydroxypropylcellulose) (HPC)) was 99 % of control. The T/C (dose: 1800.0 mg/kg/injection, schedule: Q04DX004 (sc), vehicle: Klucel (hydroxypropylcellulose) (HPC)) was 68 % of control.

For `C=C1C(=O)OC2CC(C)C3C4OC4C(O)C3(C)C(O)C12` (configuration not stated), the T/C [3] was 99 % of control, the T/C [4] was 121 % of control and the T/C [5] was 107 % of control.

In the case of `CC(=O)OCC(OC(C)=O)C(Cl)CCl` (configuration not stated), the T/C (dose: 31.25 mg/kg/injection, schedule: Q04DX004 (ip), vehicle: saline) is reported as 114 % of control, the T/C (dose: 62.5 mg/kg/injection, schedule: Q04DX004 (ip), vehicle: saline) is reported as 121 % of control and the T/C (dose: 125.0 mg/kg/injection, schedule: Q04DX004 (ip), vehicle: saline) is reported as 84 % of control. For the same compound, the T/C (dose: 250.0 mg/kg/injection, schedule: Q04DX004 (ip), vehicle: saline) was 100 % of control and the T/C (dose: 500.0 mg/kg/injection, schedule: Q04DX004 (ip), vehicle: saline) was 115 % of control.
